The text below walks through data of US20190367516A1 (Bayer Pharma Aktiengesellschaft, priority 2015, published 2019).

This assay deals with T1, human M2 receptor (Homo sapiens, UniProt P08172).
T1 sequence (P08172 1-466): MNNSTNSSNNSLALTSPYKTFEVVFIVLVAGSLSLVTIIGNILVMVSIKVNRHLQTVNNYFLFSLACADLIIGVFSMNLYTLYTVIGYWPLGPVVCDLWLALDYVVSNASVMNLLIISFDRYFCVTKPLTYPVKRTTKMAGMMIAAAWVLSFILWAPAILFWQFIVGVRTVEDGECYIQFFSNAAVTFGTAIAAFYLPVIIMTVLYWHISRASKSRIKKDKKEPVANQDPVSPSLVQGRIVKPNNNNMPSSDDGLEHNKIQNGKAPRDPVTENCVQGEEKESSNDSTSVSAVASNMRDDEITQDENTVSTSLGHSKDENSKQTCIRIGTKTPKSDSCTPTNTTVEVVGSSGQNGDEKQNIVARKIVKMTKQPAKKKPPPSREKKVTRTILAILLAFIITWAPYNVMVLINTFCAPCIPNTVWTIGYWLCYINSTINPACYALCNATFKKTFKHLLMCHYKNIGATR
Particulars: M2-GIRK1/4 reporter cells; for EC50: Receptor activity EC50, allosteric potency at EC20 acetylcholine, in some cases mean of two or more determinations; for Emax: read-out: Efficiency, boosting of the acetylcholine effect at EC20 acetylcholine concentration.

Take `O=C(N[C@@H](C1CC1)C(F)(F)F)c1cn(-c2c(F)cc(F)cc2F)c2nc(N3CC[C@@H](O)C3=O)ccc2c1=O` [Example 466, N-[(1 S)-1-Cyclopropyl-2,2,2-trifluoroethyl]-7-[(3R)-3-hydroxy-2-oxopyrrolidin-1-yl]-4-oxo-1-(2,4,6-trifluorophenyl)-1,4-dihydro-1,8-naphthyridine-3-carboxamide]: the midpoint of the response, the EC50, lay at 0.026 µM and the Emax turned out to be 100%.
In the same order, the values of `O=C(N[C@@H](C1CC1)C(F)(F)F)c1cn(-c2c(F)cc(F)cc2F)c2nc(N3CC[C@H](O)C3=O)ccc2c1=O` [Example 467, N-[(1 S)-1-Cyclopropyl-2,2,2-trifluoroethyl]-7-[(3S)-3-hydroxy-2-oxopyrrolidin-1-yl]-4-oxo-1-(2,4,6-trifluorophenyl)-1,4-dihydro-1,8-naphthyridine-3-carboxamide] are 0.042 µM and 97.5%.
In the same order, the values of `O=C(N[C@@H](C1CC1)C(F)(F)F)c1cn(-c2c(F)cc(F)cc2F)c2nc(N3CCC(CO)C3=O)ccc2c1=O` (stereo partly shown) [Example 468, N-[(1 S)-1-Cyclopropyl-2,2,2-trifluoroethyl]-7-[3-(hydroxymethyl)-2-oxopyrrolidin-1-yl]-4-oxo-1-(2,4,6-trifluorophenyl)-1,4-dihydro-1,8-naphthyridine-3-carboxamide] are 0.023 µM and 98.5%.
With `CC(C)(C)NC(=O)c1cn(-c2c(F)cc(F)cc2F)c2nc(N3C[C@@H](O)CC3=O)ccc2c1=O` [Example 469, N-tert-Butyl-7-[(4S)-4-hydroxy-2-oxopyrrolidin-1-yl]-4-oxo-1-(2,4,6-trifluorophenyl)-1,4-dihydro-1,8-naphthyridine-3-carboxamide], the half-maximal effective concentration (EC50) is 0.02 µM and the Emax came out at 100%.
In the same order, the values of `C[C@@H](NC(=O)c1cn(-c2c(F)cc(F)cc2F)c2nc(N3C[C@@H](O)[C@H](O)C3)ccc2c1=O)C1CC1` [Example 470, N-[(1R)-1-Cyclopropylethyl]-7-[(3R,4R)-3,4-dihydroxypyrrolidin-1-yl]-4-oxo-1-(2,4,6-trifluorophenyl)-1,4-dihydro-1,8-naphthyridine-3-carboxamide] are 0.104 µM and 98.5%.
In the same order, the values of `CC(C)[C@H](C)NC(=O)c1cn(-c2c(F)cc(F)cc2F)c2nc(N3C[C@@H](O)[C@H](O)C3)ccc2c1=O` [Example 472, 7-[(3R,4R)-3,4-Dihydroxypyrrolidin-1-yl]-N-[(2S)-3-methylbutan-2-yl]-4-oxo-1-(2,4,6-trifluorophenyl)-1,4-dihydro-1,8-naphthyridine-3-carboxamide] are 0.029 µM and 90%.
The corresponding values for `CC(C)[C@@H](C)NC(=O)c1cn(-c2c(F)cc(F)cc2F)c2nc(N3C[C@@H](O)CC3=O)ccc2c1=O` [Example 473, 7-[(4S)-4-Hydroxy-2-oxopyrrolidin-1-yl]-N-[(2R)-3-methylbutan-2-yl]-4-oxo-1-(2,4,6-trifluorophenyl)-1,4-dihydro-1,8-naphthyridine-3-carboxamide] are 0.031 µM and 100%.
With `C[C@H](NC(=O)c1cn(-c2c(F)cc(F)cc2F)c2nc(N3C[C@@H](O)[C@H](O)C3)ccc2c1=O)C1CC1` [Example 477, N-[(1 S)-1-Cyclopropylethyl]-7-[(3R,4R)-3,4-dihydroxypyrrolidin-1-yl]-4-oxo-1-(2,4,6-trifluorophenyl)-1,4-dihydro-1,8-naphthyridine-3-carboxamide], a half-maximal effect (EC50) was put at 0.073 µM and the Emax was found to be 89%.
As for `C[C@H](NC(=O)c1cn(-c2c(F)cc(F)cc2F)c2nc(N3C[C@@H](O)CC3=O)ccc2c1=O)C1CC1` [Example 478, N-[(1 S)-1-Cyclopropylethyl]-7-[(4S)-4-hydroxy-2-oxopyrrolidin-1-yl]-4-oxo-1-(2,4,6-trifluorophenyl)-1,4-dihydro-1,8-naphthyridine-3-carboxamide], the midpoint of the response, the EC50, lay at 0.024 µM and the Emax was 100%.
The corresponding values for `CC(C)(C)NC(=O)c1cn(-c2c(F)cc(F)cc2F)c2nc(N3C[C@@H](O)[C@H](O)C3)ccc2c1=O` [Example 479, N-tert-Butyl-7-[(3R,4R)-3,4-dihydroxypyrrolidin-1-yl]-4-oxo-1-(2,4,6-trifluorophenyl)-1,4-dihydro-1,8-naphthyridine-3-carboxamide] are 0.038 µM and 100%.
The corresponding values for `C[C@@H](NC(=O)c1cn(-c2c(F)cc(F)cc2F)c2nc(N3C[C@@H](O)CC3=O)ccc2c1=O)C1CC1` [Example 480, N-[(1R)-1-Cyclopropylethyl]-7-[(4S)-4-hydroxy-2-oxopyrrolidin-1-yl]-4-oxo-1-(2,4,6-trifluorophenyl)-1,4-dihydro-1,8-naphthyridine-3-carboxamide] are 0.046 µM and 100%.
Regarding `CC(C)(NC(=O)c1cn(-c2c(F)cc(F)cc2F)c2nc(N3C[C@@H](O)CC3=O)ccc2c1=O)C1CC1` [Example 481, N-(2-Cyclopropylpropan-2-yl)-7-[(4S)-4-hydroxy-2-oxopyrrolidin-1-yl]-4-oxo-1-(2,4,6-trifluorophenyl)-1,4-dihydro-1,8-naphthyridine-3-carboxamide], it took 0.01 µM to reach a half-maximal effect (EC50) and the Emax was 100%.
On to `CC(C)[C@@H](C)NC(=O)c1cn(-c2c(F)cc(F)cc2F)c2nc(N3C[C@@H](O)[C@H](O)C3)ccc2c1=O` [Example 483, 7-[(3R,4R)-3,4-Dihydroxypyrrolidin-1-yl]-N-[(2R)-3-methylbutan-2-yl]-4-oxo-1-(2,4,6-trifluorophenyl)-1,4-dihydro-1,8-naphthyridine-3-carboxamide], for which a half-maximal response (EC50) required 0.054 µM and the Emax worked out at 92.5%.
Take `CN1CCN(c2ccc3c(=O)c(C(=O)N[C@@H](C4CC4)C(F)(F)F)cn(-c4c(F)cc(F)cc4F)c3n2)CC1` [Example 490]: the half-maximal effective concentration (EC50) was 0.103 µM and the Emax turned out to be 91.5%.
The corresponding values for `CN(C[C@H](O)CO)c1ccc2c(=O)c(C(=O)N[C@@H](C3CC3)C(F)(F)F)cn(-c3c(F)cc(F)cc3F)c2n1` [Example 491] are 0.106 µM and 85.5%.
In the same order, the values of `O=C(N[C@@H](C1CC1)C(F)(F)F)c1cn(-c2c(F)cc(F)cc2F)c2nc(N3CC4(COC4)C3)ccc2c1=O` [Example 492] are 0.044 µM and 97.5%.
In the same order, the values of `CC[C@H](NC(=O)c1cn(-c2c(F)cc(F)cc2F)c2nc(N(C)C[C@@H](C)O)ccc2c1=O)C(F)(F)F` [Example 495] are 0.031 µM and 99.5%.
For `CC[C@H](NC(=O)c1cn(-c2c(F)cc(F)cc2F)c2nc(N3CCN(C)CC3)ccc2c1=O)C(F)(F)F` [Example 496], the EC50 is 0.067 µM and the Emax is 89%.
In the case of `CC[C@H](NC(=O)c1cn(-c2c(F)cc(F)cc2F)c2nc(N(C)C[C@H](C)O)ccc2c1=O)C(F)(F)F` [Example 497], a half-maximal response (EC50) required 0.029 µM and the Emax was 92%.
The corresponding values for `CC[C@H](NC(=O)c1cn(-c2c(F)cc(F)cc2F)c2nc(N3CC4(COC4)C3)ccc2c1=O)C(F)(F)F` [Example 498] are 0.06 µM and 83.5%.
As to `CC[C@H](NC(=O)c1cn(-c2c(F)cc(F)cc2F)c2nc(NC(C)(C)C)ccc2c1=O)C(F)(F)F` [Example 499], the concentration giving a half-maximal response (EC50) stood at 0.063 µM and the Emax turned out to be 96%.
The corresponding values for `CC[C@H](NC(=O)c1cn(-c2c(F)cc(F)cc2F)c2nc(N3CCC(CO)(CO)CC3)ccc2c1=O)C(F)(F)F` [Example 500] are 0.076 µM and 100%.
`CC[C@H](NC(=O)c1cn(-c2c(F)cc(F)cc2F)c2nc(N3CC(F)C3)ccc2c1=O)C(F)(F)F` [Example 501]: the EC50 came out at 0.058 µM and the Emax was found to be 98%.
On to `O=C(N[C@@H](C1CC1)C(F)(F)F)c1cn(-c2c(F)cc(F)cc2F)c2nc(N3CC(CO)(CO)C3)ccc2c1=O` [Example 502, 7-[3,3-Bis(hydroxymethyl)azetidin-1-yl]-N-[(1S)-1-cyclopropyl-2,2,2-trifluoroethyl]-4-oxo-1-(2,4,6-trifluorophenyl)-1,4-dihydro-1,8-naphthyridine-3-carboxamide], for which the concentration giving a half-maximal response (EC50) turned out to be 0.03 µM and the Emax was 91%.
As to `CC[C@H](NC(=O)c1cn(-c2c(F)cc(F)cc2F)c2nc(N3C[C@@H](NC(C)=O)CC3=O)ccc2c1=O)C(F)(F)F` [Example 517, 7-[(4S)-4-Acetamido-2-oxopyrrolidin-1-yl]-4-oxo-N-[(2S)-1,1,1-trifluorobutan-2-yl]-1-(2,4,6-trifluorophenyl)-1,4-dihydro-1,8-naphthyridine-3-carboxamide], a half-maximal effect (EC50) was put at 0.085 µM and the Emax worked out at 88.5%.
The corresponding values for `CC[C@H](NC(=O)c1cn(-c2c(F)cc(F)cc2F)c2nc(N3CC(CNC(C)=O)CC3=O)ccc2c1=O)C(F)(F)F` (stereo partly drawn) [Example 518, 7-[4-(Acetamidomethyl)-2-oxopyrrolidin-1-yl]-4-oxo-N-[(2S)-1,1,1-trifluorobutan-2-yl]-1-(2,4,6-trifluorophenyl)-1,4-dihydro-1,8-naphthyridine-3-carboxamide] are 0.47 µM and 99.5%.
